Assay results: paper PMC9037210, “Novel 3-(6-methylpyridin-2-yl)coumarin-based chalcones as selective inhibitors of cancer-related carbonic anhydrases IX and XII endowed with anti-proliferative activity” (Journal of Enzyme Inhibition and Medicinal Chemistry, 2022)
Read-outs that look alike come from different tables or passages of the source.

How the values were obtained:
[1] = target: T1, hCA II (Homo sapiens, UniProt P00918); assay: stopped-flow CO2 hydrase assay, hCA II; format: biochemical; details: incubation time of 6 h, mean of three assays, read-out: KI CA II
T1 construct: made in house
Description: (§1) The newly synthesised MPCs (3 and 5a–o) were assessed for their CA inhibition activity employing the stopped-flow CO2 hydrase assay[29] for constitutional hCA (I/II) isoforms and cancer-linked hCA (IX/XII) isoforms.
(§2) The CA inhibition activity for the herein reported MPC derivatives was evaluated against the hCA isoforms I, II, IX, and XII using stopped-flow CO2 hydrase test[7]^,[33–36] (see the Supplementary Material).
(§3) Carbonic anhydrase inhibition assay
(§4) The carbonic anhydrase catalyzed CO2 hydration actions for all coumarin-based […]
(§5) Photophysics stopped-flow. The enzymes are recombinant proteins prepared in our lab. Phenol red (at a concentration of 0.2 mM) has been used as indicator, working at […]
(§6) mM Na2SO4 (for maintaining constant the ionic strength), following the initial rates of the CA-catalyzed CO2 hydration reaction for a period of 10-100 s. The CO2 concentrations ranged from 1.7 to 17 mM for the determination of the kinetic parameters and inhibition constants. For each inhibitor at least six traces of the initial 5-10% of the reaction have been used for determining the initial velocity. The uncatalyzed rates were determined in the same manner and subtracted from the total observed rates. Stock solutions of inhibitor (0.1 mM) were prepared in distilled-deionized water and dilutions up to 0.01 nM were done thereafter with the assay buffer. Inhibitor and enzyme solutions were preincubated together for 6 hrs. at room temperature prior to assay, in order to allow for the formation of the E-I complex. The inhibition constants were obtained by non-linear least-squares methods using PRISM 3 and the Cheng-Prusoff equation, and represent the mean from at least three different

[2] = target: T2, hCA IX (Homo sapiens, UniProt Q16790); assay: stopped-flow CO2 hydrase assay, hCA IX; format: biochemical; details: for Selectivity index (SI) (KI off-target CA/KI target CA) Towards hCA IX: ratio of KI for hCA I and II relative to hCA IX; for Ki: stopped-flow, incubation time of 6 h, mean of three assays, read-out: KI CA IX; for fold decreased inhibitory activity towards hCA IX: relative to phenyl analogue 5a
T2 construct: made in house
Description: as §1, §2, §3, §4, §5, §6

[3] = target: T3, hCA XII (Homo sapiens, UniProt O43570); assay: stopped-flow CO2 hydrase assay, hCA XII; format: biochemical; details: for Selectivity index (SI) (KI off-target CA/KI target CA) Towards hCA XII: ratio of KI for hCA I and II relative to hCA XII; for Ki: stopped-flow, incubation time of 6 h, mean of three assays, read-out: KI CA XII
T3 construct: made in house
T3 sequence (O43570 25-354): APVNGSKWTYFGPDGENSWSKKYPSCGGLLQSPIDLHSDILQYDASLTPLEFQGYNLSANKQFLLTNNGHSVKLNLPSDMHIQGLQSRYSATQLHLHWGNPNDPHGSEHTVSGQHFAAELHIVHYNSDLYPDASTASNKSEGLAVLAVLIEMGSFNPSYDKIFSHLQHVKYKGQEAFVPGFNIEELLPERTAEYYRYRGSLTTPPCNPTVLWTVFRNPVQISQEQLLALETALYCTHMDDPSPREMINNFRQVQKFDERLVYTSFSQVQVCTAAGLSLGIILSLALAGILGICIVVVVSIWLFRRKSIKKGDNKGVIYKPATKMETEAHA
Description: as §1, §2, §3, §4, §5, §6

[4] = target: T4, hCA I (Homo sapiens, UniProt P00915); assay: stopped-flow CO2 hydrase assay, hCA I; format: biochemical
T4 construct: made in house
T4 sequence (P00915 whole entry): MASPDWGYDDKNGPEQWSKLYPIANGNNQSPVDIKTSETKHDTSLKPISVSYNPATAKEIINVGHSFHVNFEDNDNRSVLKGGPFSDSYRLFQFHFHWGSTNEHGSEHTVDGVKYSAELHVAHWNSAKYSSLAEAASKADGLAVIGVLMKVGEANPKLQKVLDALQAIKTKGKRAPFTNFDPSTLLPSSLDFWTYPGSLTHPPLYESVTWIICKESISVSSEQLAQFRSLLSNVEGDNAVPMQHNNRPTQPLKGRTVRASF
Description: as §1, §2, §3, §4, §5, §6

[5] = target: T4, hCA I; details: Figure 1; read-out: hCA I inhibition; cited from earlier work
[6] = target: T2, hCA IX; details: Figure 1; read-out: hCA IX inhibition; cited from earlier work
[7] = system: LOX IMVI; assay: NCI single (10 µM) dose SRB screening, LOX IMVI; format: cell-based, human; details: 10 µM single dose, Melanoma
Description: (§7) Following NCI protocol, sixteen MPCs were screened for their potential in vitro anticancer effects against human 59 cancer cell panels including prostate, leukaemia melanoma, colon, breast, CNS, renal, NSCLC, and ovarian cancers by National Cancer Institute (USA)[30].
(§8) The antiproliferative activities of MPC 3 and MPCs 5a–o were first evaluated in a 10 µM dose assay, with SRB assay used to determine cell survival and proliferation. […] The results of the cell growth inhibitory activities for MPCs 5g and 5l towards the different treated tumour cell lines were presented as GI% and presented in Table 3.
(§9) The anticancer test was conducted using the methods of the Drug Evaluation Branch, National Cancer Institute, Bethesda, MD, using 59 human tumour cell lines derived from nine human tissues. The GI50, TGI, and LC50 dose-response parameters were calculated for each medication.

[8] = system: MCF7; assay: NCI single (10 µM) dose SRB screening, MCF7; format: cell-based, human; details: 10 µM single dose, MCF7, Breast cancer
Description: as §7, §8, §9

[9] = system: SNB-75; assay: NCI single (10 µM) dose SRB screening, SNB-75; format: cell-based, human; details: 10 µM single dose, SNB-75, CNS cancer
Description: as §7, §8, §9

[10] = system: MDA-MB-435; assay: NCI single (10 µM) dose SRB screening, MDA-MB-435; format: cell-based, human; details: 10 µM single dose, MDA-MB-435, Melanoma
Description: as §7, §8, §9

[11] = target: T1, hCA II; details: Figure 1; read-out: hCA II inhibition; cited from earlier work
[12] = stopped-flow, incubation time of 6 h, mean of three assays, read-out: KI CA I

Row | Ki [1] | melting point | Selectivity index (SI) (KI off-target CA/KI target CA) Towards hCA IX [2] | Ki [2] | Selectivity index (SI) (KI off-target CA/KI target CA) Towards hCA XII [3] | Ki [3] | Ki [4, 12] | fold decreased inhibitory activity towards hCA IX [2] | Ki [4] | Compound | Ki [5] | Ki [6] | GI % [7] | GI % [8] | GI % [9] | GI % [10] | Ki [11]
1 | > 100 µM | 186 to 188 °C | >3.65 | 27.4 µM | >7.75 | 12.9 µM | > 100 µM | – | – | COc1cc(/C=C/C(=O)c2ccc(-c3cc4ccccc4oc3=O)nc2C)cc(OC)c1OC [Compound 5i, 3-(6-Methyl-5-[(2E)-3-(3,4,5-trimethoxyphenyl)prop-2-enoyl]pyridin-2-yl)-2H-chromen-2-one] | – | – | – | – | – | – | –
2 | > 100 µM | 202 to 204 °C | >6.10 | 16.4 µM | >9.17 | 10.9 µM | > 100 µM | – | – | Cc1nc(-c2cc3ccccc3oc2=O)ccc1C(=O)/C=C/c1ccc([N+](=O)[O-])cc1 [Compound 5e, 3-(6-Methyl-5-[(2E)-3-(4-nitrophenyl)prop-2-enoyl]pyridin-2-yl)-2H-chromen-2-one] | – | – | – | – | – | – | –
3 | > 100 µM | – | >66.67 | 1.5 µM | >19.61 | 5.1 µM | > 100 µM | – | – | Cc1nc(-c2cc3ccccc3oc2=O)ccc1C(=O)/C=C/c1ccccc1 [Compound 5a, 3-(6-Methyl-5-[(2E)-3-phenylprop-2-enoyl]pyridin-2-yl)-2H-chromen-2-one] | – | – | – | – | – | – | –
4 | > 100 µM | 204 to 206 °C | >2.71 | 36.9 µM | >4.67 | 21.4 µM | > 100 µM | ~23 fold | – | Cc1nc(-c2cc3ccccc3oc2=O)ccc1C(=O)/C=C/c1cccc2ccccc12 [Compound 5k, 3-(6-Methyl-5-[(2E)-3-(naphthalen-1-yl)prop-2-enoyl]pyridin-2-yl)-2H-chromen-2-one] | – | – | – | – | – | – | –
5 | – | – | – | – | – | – | – | – | – | O=Cc1ccccc1OCc1cn(CCCOc2ccc3ccc(=O)oc3c2)nn1 [V] | > 10 µM | 0.13 µM | – | – | – | – | –
6 | > 100 µM | – | >29.41 | 3.4 µM | >37.04 | 2.7 µM | > 100 µM | – | – | Cc1nc(-c2cc3ccccc3oc2=O)ccc1C(=O)/C=C/c1ccc(F)cc1 [Compound 5b, 3-(5-[(2E)-3-(4-Fluorophenyl)prop-2-enoyl]-6-methylpyridin-2-yl)-2H-chromen-2-one] | – | – | 46% | 49% | 39% | – | –
7 | > 100 µM | 223 to 225 °C | >17.24 | 5.8 µM | >52.63 | 1.9 µM | > 100 µM | – | – | Cc1nc(-c2cc3ccccc3oc2=O)ccc1C(=O)/C=C/c1ccc(Cl)cc1 [Compound 5c, 3-(5-[(2E)-3-(4-Chlorophenyl)prop-2-enoyl]-6-methylpyridin-2-yl)-2H-chromen-2-one] | – | – | – | – | – | – | –
8 | > 100 µM | 178 to 180 °C | >18.87 | 5.3 µM | >14.71 | 6.8 µM | > 100 µM | about 3.5 fold | – | Cc1nc(-c2cc3ccccc3oc2=O)ccc1C(=O)/C=C/c1ccc2c(c1)OCO2 [Compound 5j, 3-(5-[(2E)-3-(2H-1,3-Benzodioxol-5-yl)prop-2-enoyl]-6-methylpyridin-2-yl)-2H-chromen-2-one] | – | – | – | – | – | – | –
9 | > 100 µM | – | >105.26 | 0.95 µM | >147.06 | 0.68 µM | > 100 µM | – | – | CC(=O)c1ccc(-c2cc3ccccc3oc2=O)nc1C [Compound 3, 3-(5-acetyl-6-methylpyridin-2-yl)-2H-chromen-2-one] | – | – | – | – | – | – | –
10 | > 100 µM | – | >11.76 | 8.5 µM | >14.92 | 6.7 µM | > 100 µM | – | – | Cc1nc(-c2cc3ccccc3oc2=O)ccc1C(=O)/C=C/c1ccc(N(C)C)cc1 [Compound 5f, 3-(5-[(2E)-3-[4-(Dimethylamino)phenyl]prop-2-enoyl]-6-methylpyridin-2-yl)-2H-chromen-2-one] | – | – | – | – | – | 80% | –
11 | – | – | – | – | – | – | – | – | – | O=c1ccc2cc(O)ccc2o1 [III] | > 100 µM | – | – | – | – | – | > 100 µM
12 | > 100 µM | 206 to 208 °C | >23.25 | 4.3 µM | >12.19 | 8.2 µM | > 100 µM | – | – | Cc1ccc(/C=C/C(=O)c2ccc(-c3cc4ccccc4oc3=O)nc2C)cc1 [Compound 5d, 3-(6-Methyl-5-[(2E)-3-(4-methylphenyl)prop-2-enoyl]pyridin-2-yl)-2H-chromen-2-one] | – | – | – | – | – | – | –
13 | > 100 µM | – | – | – | – | – | – | – | > 100 µM | Cc1nc(-c2cc3ccccc3oc2=O)ccc1C(=O)/C=C/c1cccs1 [Compound 5m, 3-(6-Methyl-5-[(2E)-3-(thiophen-2-yl)prop-2-enoyl]pyridin-2-yl)-2H-chromen-2-one] | – | – | – | – | – | – | –
14 | > 100 µM | – | >66.67 | 1.5 µM | >52.63 | 1.9 µM | > 100 µM | – | – | Cc1ccc(/C=C/C(=O)c2ccc(-c3cc4ccccc4oc3=O)nc2C)o1 [Compound 5n, 3-(6-Methyl-5-[(2E)-3–(5-methylfuran-2-yl)prop-2-enoyl]pyridin-2-yl)-2H-chromen-2-one] | – | – | 39% | 40% | – | – | –
15 | > 100 µM | 204 to 206 °C | >5.15 | 19.4 µM | >5.62 | 17.8 µM | > 100 µM | – | – | Cc1nn(-c2ccccc2)cc1/C=C/C(=O)c1ccc(-c2cc3ccccc3oc2=O)nc1C [Compound 5o, 3-(6-Methyl-5-[(2E)-3–(3-methyl-1-phenyl-1H-pyrazol-4-yl)prop-2-enoyl]pyridin-2-yl)-2H-chromen-2-one] | – | – | – | – | – | – | –
16 | > 100 µM | 174 to 175 °C | >9.34 | 10.7 µM | >35.71 | 2.8 µM | > 100 µM | – | – | COc1ccc(/C=C/C(=O)c2ccc(-c3cc4ccccc4oc3=O)nc2C)cc1 [Compound 5h, 3-(5-[(2E)-3-(4-Methoxyphenyl)prop-2-enoyl]-6-methylpyridin-2-yl)-2H-chromen-2-one] | – | – | – | – | – | – | –
17 | – | – | – | – | – | – | – | – | – | O=C(Nc1ccc(Cl)cc1)c1cc2ccc(O)cc2oc1=O [IV] | > 100 µM | – | – | – | – | – | > 100 µM
